Experimental data taken from patent US10899776B2, “Antiviral and antibacteria agents based on quaternary ammonium compound complexed with boric acid and its derivatives” (B-Organic Films Corp, priority 2015, dated 2021).
Several values for one entry are separate records, joined by “and”; a condition that tells them apart may be missing. Equal entries are not always repeated.

Tests used:
[1] = test system: White Spot Syndrome Virus (WSSV); assay: Challenge of shrimp L. vannamei with White Spot Syndrome Virus, survival; assay type: in vivo; conditions: for survival rate: positive control 10%
Procedure: The virus is isolated from WSSV-infected adult L. vannamei shrimp obtained from commercial farms located in Sinaloa, Mexico in 2013. Virus stocks were purified from infected shrimp homogenates by improved differential centrifugation as described previously by Du et al, (Du, H. H., Fu, L. L., Xu, Y. X., Kil, Z. S., Xu. Z. R. 2007. Aquaculture, 262:532-534) and then stored at −80° C. For assays, the WSSV stock is serially diluted to prepare solutions containing various target copy numbers determined by competitive PCR.
A volume of 20 μL of different dilutions of the tissue homogenate (containing WSSV in 330 mM of NaCl) is injected intramuscularly in fourth or fifth abdominal segment of L. vannamei using an insulin needle. The mortality is recorded twice a day and dead shrimp are tested by PCR to highlight the presence of WSSV.
There are two control groups: • 1.
The shrimp mortality percentage is recorded daily.
Dead shrimp are recorded daily during 120 hours.

Toll-Like Receptor = conditions: RT q-PCR, treated vs non-treated shrimp; feed 5 mg/g
Procedure: (§1) Primer design is performed in the online application «primer3plus» (Untergasser, A., Nijveen, H., Rao, W., Bisseling, T., Geurts, R., Leunissen, J. A. M. 2007, Nucleic Acids Research, 35: 71-74) based in the following features: 18-24 nt length; GC content 35-65% product size 80-250 bp; and ≤2 GC clamp (Wang, X. and Seed, B., 2007). The primers are evaluated in the online application «Oligo Evaluator» Sigma Aldrich™ (St' Louis, Mo.) to check thermodynamic characteristics based in self-aligned primer and primer-dimer structures. The primers selected are ≤−2 Kcal/mol and evaluated using an in silico PCR software «Primer Digital» (Kalender et al., 2011). RNA extracts used for the microarray hybridizations are converted to cDNA using promega GoScript™ Reverse Transcription System (Promega Corporation, Madison, Wis., USA) and SsoFast™ EvaGreen® Supermix (Bio-Rad, Hercules, Calif., USA) for RT-qPCR.

SOD = conditions: RT q-PCR, treated vs non-treated shrimp; feed 5 mg/g
Procedure: as §1

white shrimp L. vannamei = conditions: in vivo
[2] = test system: Vibrio parahaemolyticus CAIM 170; conditions: V. parahaemolyticus 1×10^6 cfu/mL, after 96 h; dose 5 mg/g of feed; untreated infected about 30%

Compound: C[N+](C)(C)CCOB1OB2OB(O1)OB1OB(O2)O1.[Cl-] [choline/pentaborate complex]
- impact of WSSV infection (summary statement) ([1]; 5 mg/g in feed diets, standardized injection protocols): effective in reducing impact of WSSV infection
- survival ([1]; 1% WSSV suspension, 96 h post-challenge, 5 mg/g feed, positive control about 35%, p<0.05): 85%
- survival ([1]; 1% WSSV suspension, after 72 h, 5 mg/g feed, positive control about 65%): 95%
- survival rate ([1]; 3% WSSV suspension, 96 h post-challenge, 1 mg/g feed): ~40%
- survival rate ([1]; 3% WSSV suspension, 96 h post-challenge, 5 mg/g feed): ~40%
- survival ([1]; 3% WSSV suspension, after 48 hours, 5 mg/g feed, positive control about 80%): 95%
- increase of expression of Toll-Like Receptor gene (Toll-Like Receptor): more than 200 fold
- increase of expression of SOD gene (SOD): more than 200 fold
- toxicity (summary statement) (white shrimp L. vannamei): not toxic
- survival [2]: > 80% and 84%
